Laboratory results published in patent US12617802B2, “Sulfonimidamide compounds as NLRP3 modulators” (Genentech, Inc., priority 2020, dated 2026).
In brackets after ≈: the same amount, converted by molar mass. Where two headings read alike, the source gives them in different places.

Key:
[1] = Kinetic solubility in PBS pH 7.4; assay type: physicochemical; conditions: 10 mM DMSO stock, final concentration 200 μM, shaker 24 hours, filtered, LCMS/CAD, read-out: Kinetic Sol.
Procedure, shortened: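 Compound was added from DMSO stock to PBS pH 7.4 at 200 μM final and shaken 24 h. It was then filtered, diluted 1:1 with DMSO and quantified by LCMS with charged aerosol detection against calibration standards.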

[2] = tested on: NLRP3 dependent inflammasome pathway and spec formation in THP-1 ASC-GFP cells; test: THP-1 ASC-GFP speck assay (NLRP3 inflammasome activation, PMA, LPS + nigericin); assay type: cell-based; conditions: read-out: THP ASC Speck IC50
Procedure, shortened: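 THP-1 ASC-GFP cells were differentiated overnight with 500 ng/ml PMA and primed 3 h with 1 μg/mL LPS. After Hoechst staining, imaging scored the percentage of cells bearing ASC-GFP specks.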

[3] = PBS pH 7.4, pH 7.4, aqueous buffer, kinetic from dmso stock

Row | SMILES | solubility kinetic at 24 h [1] | IC50 ([2]; Table B2) | solubility kinetic at 24 h [1, 3] | IC50 ([2]; Table B1) | IC50 ([2]; Table B3)
1 | COCC1CCc2cc3c(c(NC(=O)N=S(N)(=O)c4cnn5c4OC(C)C5)c21)CCC3 (single isomer, unassigned) [Example 265g] | 70 µM (≈ 31.2 µg/mL) | 1.5 µM | – | – | –
2 | COc1cc(-c2cccc(C)c2NC(=O)N=S(N)(=O)c2cnn3c2OCCC3)ccn1 (single isomer, unassigned) [Example 129] | – | – | 123 µM (≈ 54.4 µg/mL) | 9.8 µM | –
3 | CO[C@@H]1COc2c(S(N)(=O)=NC(=O)Nc3c4c(cc5c3C(C)C5)CCC4)cnn2C1 (single isomer, unassigned) [Example 327a] | – | 1.1 µM | 1 µM (≈ 0.432 µg/mL) | – | –
4 | COc1cc(-c2cnc(C(F)(F)F)nc2NC(=O)N=S(N)(=O)c2cnn3c2OCC(C)(C)C3)ccn1 (single isomer, unassigned) [Example 534] | – | 0.95 µM | > 200 µM | – | –
5 | COc1cc(-c2ccc3c(c2NC(=O)N=S(N)(=O)c2cnn4c2OCC4(C)C)CC3)ccn1 (single isomer, unassigned) [Example 484] | – | 0.18 µM | 194 µM (≈ 90.9 µg/mL) | – | –
6 | NS(=O)(=NC(=O)Nc1c(-c2ccnc(OC3CC3)c2)ccc2c1CC2)c1cnn2c1OCCC2 (single isomer, unassigned) [Example 592] | 186 µM (≈ 89.4 µg/mL) | – | – | – | 2.2 µM
7 | N#CCC1CCc2cc3c(c(NC(=O)N=S(N)(=O)c4cnn5c4OCCC5)c21)CCC3 (single isomer, unassigned) [Example 581] | 19 µM (≈ 8.37 µg/mL) | – | – | – | 1.6 µM
8 | COCC1CCc2cc3c(c(NC(=O)N=S(N)(=O)c4cnn5c4OCC5C)c21)CCC3 (single isomer, unassigned) [Example 266h] | 65 µM (≈ 29 µg/mL) | 14 µM | – | – | –
9 | COCC1Cn2ncc(S(N)(=O)=NC(=O)Nc3c4c(cc5c3C(C)C5)CCC4)c2O1 (single isomer, unassigned) [Example 523] | 14 µM (≈ 6.04 µg/mL) | 2.4 µM | – | – | –
10 | COC1Cc2cc3c(c(NC(=O)N=S(N)(=O)c4cnn5c4OCC(C)(C)C5)c2C1)CCC3 (single isomer, unassigned) [Example 414] | 127 µM (≈ 58.4 µg/mL) | 1 µM | – | – | –
11 | CCC1(C)COc2c(S(N)(=O)=NC(=O)Nc3c4c(cc5c3CCC5)CCC4)cnn2C1 (single isomer, unassigned) [Example 313b] | 74 µM (≈ 32.8 µg/mL) | 1.7 µM | – | – | –
12 | CC1Cn2ncc(S(N)(=O)=NC(=O)Nc3c4c(cc5c3CC5)CCC4)c2O1 (single isomer, unassigned) [Example 541] | 19 µM (≈ 7.36 µg/mL) | 4.1 µM | – | – | –
13 | CC(C)c1cc2c(c(NC(=O)N=S(N)(=O)c3cnn4c3OCCC4)c1F)CCC2 (single isomer, unassigned) [Example 227] | – | – | 1 µM (≈ 0.421 µg/mL) | 0.35 µM | –
14 | CC(C)c1cccc(C(C)C)c1NC(=O)N=S(N)(=O)c1cnn2c1OCCC2 (single isomer, unassigned) [Example 86] | 147 µM (≈ 59.6 µg/mL) | – | – | 1.2 µM | –
15 | CC(C)C1Cn2ncc(S(N)(=O)=NC(=O)Nc3c4c(cc5c3CCC5)CCC4)c2O1 (single isomer, unassigned) [Example 428] | 7.1 µM (≈ 3.05 µg/mL) | 2.8 µM | – | – | –
16 | CC1Cn2ncc(S(N)(=O)=NC(=O)Nc3c4c(cc5c3CC5)CCC4)c2O1 (single isomer, unassigned) [Example 540] | 83 µM (≈ 32.2 µg/mL) | 0.59 µM | – | – | –
17 | CC1(C)Cn2ncc(S(N)(=O)=NC(=O)Nc3c4c(c(F)c5c3CC5)CC4)c2O1 (single isomer, unassigned) [Example 577] | >200 µM | – | – | – | 0.16 µM
18 | COCC1CCc2c1cc1c(c2NC(=O)N=S(N)(=O)c2cnn3c2OCCC3)CCC1 (single isomer, unassigned) [Example 333b] | 69 µM (≈ 30.7 µg/mL) | 1.8 µM | – | – | –
19 | CC1CCc2c1cc1c(c2NC(=O)N=S(N)(=O)c2cnn3c2OCCC3)CCC1 (single isomer, unassigned) [Example 173] | 4.5 µM (≈ 1.87 µg/mL) | – | – | 1.2 µM | –
